Results on one substance are retold here after patent publication US6506774B1, “Use of orexin receptor antagonists” (SmithKline Beecham p.l.c., priority 1999, dated 2003).

In test [1] the test system is freely-feeding rats. As to conditions: central administration, 4 hour time period; cited from earlier work.
The subject of test [2] is rats. The test can be described thus: Rat sleep/EEG studies. The format is in vivo. As to conditions: central administration at the onset of the normal sleep period. The source says:
Therefore antagonists of its receptor may be useful in the treatment of sleep disorders including insomnia.

Consider “orexin-A: peptide ligand (agonist) of the orexin-1 receptor; amino acid sequence given in the 1st table (QPLPDCCRQKTCSCRLYELLHGAGNHAAGILTL; Orexin-A; UniProt O43612 34-66, looked up)”, for which the “increase in food intake over control rats receiving vehicle” value in test [1] is reported as “approximately four-fold”. Besides, in test [2], the arousal entry is reported as “dose-related increase in arousal”; the “paradoxical sleep and slow wave sleep 2” value was “reduction in paradoxical sleep and slow wave sleep 2”.
